Values quoted from earlier work as cited in patent US20170246115A1, “MEDICINE” (KOWA COMPANY, LTD., priority 2012, published 2017).

Conditions: amorphous form formed on drying crystal form A at a water content of 4% or lower

O=C([O-])C[C@H](O)C[C@H](O)/C=C/c1c(C2CC2)nc2ccccc2c1-c1ccc(F)cc1.O=C([O-])C[C@H](O)C[C@H](O)/C=C/c1c(C2CC2)nc2ccccc2c1-c1ccc(F)cc1.[Ca+2] [amorphous pitavastatin calcium]
storage stability: considerably poor storage stability
